Source: patent US7455984B2, “Immunoreactive and immunotherapeutic molecules” (The Walter and Eliza Hall Institute of Medical Research, priority 1995, dated 2008)

System: Peripheral blood mononuclear cells from IDDM at-risk and HLA-DR matched control subjects
Assay: T-cell proliferation assay ([3H]thymidine incorporation, delta score), ten HLA-DR matched pairs
Format: cell-based, human
Details: for Reactivity (T-cell proliferation) by subject group: IDDM at-risk and control subjects, ten pairs; for Delta Score, Mean: mean of 10 subjects; for T-cell proliferative response, IDDM at-risk versus control subjects: highest concentration of peptide, Wilcoxon one-tailed paired analysis (proinsulin p<0.008; GAD p<0.018)

Row | Sequence | Reactivity (T-cell proliferation) by subject group | Delta Score, Mean (Proinsulin 0.4 μg/ml, At Risk, Wilcoxon one-tailed P 0.054 vs Control) [cpm] | Delta Score (Proinsulin 0.4 μg/ml, Control subject of each pair) [cpm] | Delta Score, Mean (Proinsulin 0.4 μg/ml, Control) [cpm] | Delta Score, Mean (Proinsulin 2 μg/ml, At Risk, Wilcoxon one-tailed P 0.125 vs Control) [cpm] | Delta Score, Mean (Proinsulin 2 μg/ml, Control) [cpm] | Delta Score, Mean (Proinsulin 10 μg/ml, At Risk, Wilcoxon one-tailed P 0.008 vs Control) [cpm] | Delta Score, Mean (Proinsulin 10 μg/ml, Control) [cpm] | T-cell proliferative response, IDDM at-risk versus control subjects | Delta Score, Mean (GAD 0.4 μg/ml, At Risk, Wilcoxon one-tailed P 0.199 vs Control) [cpm] | Delta Score, Mean (GAD 0.4 μg/ml, Control) [cpm] | Delta Score, Mean (GAD 2 μg/ml, At Risk, Wilcoxon one-tailed P 0.199 vs Control) [cpm] | Delta Score, Mean (GAD 2 μg/ml, Control) [cpm] | Delta Score, Mean (GAD 10 μg/ml, At Risk, Wilcoxon one-tailed P 0.018 vs Control) [cpm] | Delta Score, Mean (GAD 10 μg/ml, Control) [cpm]
1 | CRFDPQFALTNIAVRK [unrelated control peptide, irrelevant control peptide (Macromolecular Resources, Fort Collins, Colo.), reference compound] | no subject reacted | – | – | – | – | – | – | – | – | – | – | – | – | – | –
2 | FFYTPKTRREAED [Proinsulin, synthetic 13-mer peptide of human proinsulin, amino acid residues 24-36] | confined almost entirely to IDDM at-risk subjects | 136.0 | 0 | 0 | 251.1 | 45.8 | 558.7 | 27.6 | greater among IDDM at-risk than control subjects | – | – | – | – | – | –
3 | FWYIPPSLRTLED [GAD, synthetic 13-mer peptide of human GAD 65, amino acid residues 506-518] | some controls also responded | – | – | – | – | – | – | – | greater among IDDM at-risk than control subjects | 135.3 | 34.1 | 133.0 | 178.2 | 1042.4 | 318.1
